Assays:
[1] = tested on: MAPK phosphorylation; test: MAPK cell-based phosphorylation assay (ELISA or Western), PANC-1; details: Homo sapiens, 10 μM
Method: Cell lines: Tumor-derived pancreatic cancer cell line PANC-1 was purchased from ATCC and were and grown in DMEM-High Glucose supplemented with penicillin (100 U/mL), streptomycin (100 μg/mL), and 10% heat-inactivated FBS at 37° C. in a humidified incubator with 5% CO2.
Method: Cells were plated at 7500 cells/well density in a 96-well plate, allowed 3 hours to adhere to the plate, then starved in DMEM plus 0.5% FBS overnight. The small molecules to be tested were added to the cells in the final concentration of 10 μM in the presence of 0.3% DMSO for 6 hours incubation at 37° C. For IC50 value determination, serial dilutions of compounds were added to cells under the same conditions. Next, cells were stimulated with 1.5 ng/mL EGF for 15 minutes followed by cell fixation with 4% formaldehyde in PBS at room temperature for 20 minutes. Cell-direct ELISA determined phosphorylation level of MAPK.
Cell-direct ELISA: For each well, cells were permeabilized with 0.1% PBS-Triton X-100, quenched with 0.06% H2O2 in 0.1% PBS-Triton X-100, and probed with anti-phospho-MAPK antibodies (R&D Systems) followed by HRP-conjugated secondary antibody (Jackson Immunoresearch, West Grove, PA). Next, a 50 μM solution of the fluorescent substrate AmpliFlu Red (Sigma) was added and incubated at RT for 20 minutes. At the end of the incubation time, phosphorylation level of MAPK was determined by measuring fluorescence at 595 nm using SpectraMax M3 plate reader (Molecular Devices).
Cell lines: Human NSCLC cells NCI-H1975 and NCI-H1299, and tumor-derived pancreatic cancer cell lines Panc-1, MIA-PaCa-2, and BxPC3, were all purchased from American Type Culture Collection and grown in complete RPMI medium (BxPC3, NCI-H1975 and NCI-H1299) or DMEM-High Glucose (Panc1 and MIA-PaCa-2), supplemented with penicillin (100 U/mL), streptomycin (100 μg/mL), and 10% heat-inactivated FBS at 37° C. in a humidified incubator with 5% CO2.
(§1) Method: Cells were plated at 350000 cells/well density in a 12-well plate, allowed 3 hours to adhere to the plate, then starved in the appropriate medium in the presence of 0.5% FBS overnight. The small molecules to be tested were added to the cells in the final concentration of 10 μM in the presence of 0.3% DMSO for 6 hours incubation at 37° C. For IC50 value determination, serial dilutions of compounds were added to cells under the same conditions. Next, cells were stimulated with 1.5 ng/ml EGF for 15 minutes then cells were lysed with lysis buffer containing 1% Triton X-100, EDTA, and Halt™ Protease & Phosphatase Inhibitor Cocktail (Thermo Scientific). Protein concentration was assessed by BCA protein assay (Thermo Scientific). Phosphorylation level of MAPK was determined by western blot.
(§2) Western blot protocol: Equal amounts of protein (15-50 μg) were separated by SDS-PAGE and transferred to nitrocellulose membranes (Invitrogen by Thermo Fisher Scientific). The membrane was stained with Ponceau S Stain (Boston BioProducts) to verify uniform protein loading. Membranes were blocked with 10% milk and phosphorylation levels of MAPK were assessed by incubating overnight at 4° C. with anti-phospho-p44/42 (Thr202/Tyr204) antibody (Cell Signaling) followed by HRP-conjugated secondary antibody (Jackson Immunoresearch, West Grove, PA). Bands were incubated in Amersham ECL Prime Western Blotting Detection Reagent (GE Healthcare) and visualized using the ChemiDoc MP imaging system (Bio-Rad).

[2] = tested on: AKT phosphorylation; test: Western AKT cell-based phosphorylation assay, PANC-1; details: Homo sapiens
Method: Human tumor-derived pancreatic cancer cell line Panc-1 was purchased from American Type Culture Collection and grown in complete DMEM-High Glucose supplemented with penicillin (100 U/mL), streptomycin (100 μg/mL), and 10% heat-inactivated FBS at 37° C. in a humidified incubator with 5% CO2.
as §1, with “C.” for “C. For IC50 value determination, serial dilutions of compounds were added to cells under the same conditions.”, “Akt” for “MAPK”
as §2, with “Akt” for “MAPK”, “anti-phospho-Akt (Ser473)” for “anti-phospho-p44/42 (Thr202/Tyr204)”

[3] = 6 hours, EGF stimulation, PANC-1

| Compound | inhibition at 10 µM [1, 3] [%] | inhibition at 10 µM [2, 3] [%] | inhibition at 10 µM ([1]; PANC-1 (Table 4C)) [%] | inhibition at 10 µM ([2]; PANC-1 (Table 4C)) [%] |
| --- | --- | --- | --- | --- |
| COC1CCN(c2nc(-c3nccn3C)nc3sc(-c4ccc(CO)cc4)c(-c4ccccc4)c23)C1 (centres unmarked) [drawing 436] | 51 to 75 | 0 | – | – |
| Cn1ccc(-c2sc3nc(-c4nccn4C)nc(N[C@H]4C[C@@H](O)C4)c3c2-c2ccccc2)n1 [drawing 508] | – | – | 1 to 25 | 0 |
| COc1cc(-c2sc3nc(-c4nccn4C)nc(N4CCC(OC)C4)c3c2-c2ccccc2)ccn1 (centres unmarked) [drawing 427] | 51 to 75 | 0 | – | – |
| COc1c(O)nc(-c2ccccn2)nc1Oc1ccccc1 [drawing 451] | 0 | 0 | – | – |
| Cn1ccc(-c2sc3nc(-c4nccn4C)nc(NC4CCOCC4)c3c2-c2ccccc2)n1 [drawing 404] | 1 to 25 | 1 to 25 | – | – |
| CO[C@H]1CC[C@@H](Nc2nc(-c3ncc[nH]3)nc3sc(-c4ccn(C)n4)c(-c4ccccc4)c23)C1 [drawing 511] | – | – | 76 to 100 | 76 to 100 |
| Cc1c(-c2ccn(C)n2)sc2nc(-c3nccn3C)nc(NCCCS(C)(=O)=O)c12 [drawing 516] | – | – | 0 | 0 |
| Oc1nc(-c2ncc3ccccn23)nc2c(-c3ccccn3)csc12 [drawing 396] | 0 | 0 | – | – |
| CO[C@H]1C[C@@H](Nc2nc(-c3nccn3C)nc3sc(C(=O)N4CCOCC4)c(-c4ccccc4)c23)C1 [drawing 522] | – | – | 0 | 0 |
| O=C(c1nc(-c2ccccn2)nc(O)c1O)N1CCc2ccccc2C1 [drawing 452] | 0 | 0 | – | – |
| CO[C@H]1CC[C@@H](Nc2nc(-c3nccn3C)nc3sc(C(=O)NC(C)C)c(-c4ccccc4)c23)C1 [drawing 524] | – | – | 0 | 0 |
| COC1CCN(c2nc(-c3nccn3C)nc3sc(-c4ccccc4Cl)c(-c4cscn4)c23)C1 (centres unmarked) [drawing 415] | 0 | 0 | – | – |
| O=C(NC1CCCC1)c1nc(-c2ccccn2)nc(O)c1O [drawing 457] | 0 | 0 | – | – |
| COC1CCN(c2nc(-c3nccn3C)nn3cc(-c4ccccc4)c(-c4ccccc4)c23)C1 (centres unmarked) [drawing 471] | 51 to 75 | 0 | – | – |
| COC1CCN(c2nc(-c3nccn3C)nc3sc(-c4ccn(C)n4)c(-c4ccccc4)c23)C1 (centres unmarked) [drawing 403] | 1 to 25 | 0 | – | – |
| CO[C@H]1CC[C@@H](Nc2nc(-c3nccn3C)nc3sc(-c4ccn(C(C)C)n4)c(C)c23)C1 [drawing 519] | – | – | 76 to 100 | 0 |
| CO[C@H]1CC[C@@H](Nc2nc(-c3nccn3C)nc3sc(C(=O)N4CCCC4)c(-c4ccccc4)c23)C1 [drawing 526] | – | – | 0 | 0 |
| CC(C)CNC(=O)c1nc(-c2ccccn2)nc(O)c1O [drawing 459] | 0 | 0 | – | – |
| Cn1ccnc1-c1nc(O)c(O)c(C(=O)N2CCCC2)n1 [drawing 464] | 0 | 0 | – | – |
| COc1cccc(-c2sc3nc(-c4nccn4C)nc(N[C@H]4C[C@@H](OC)C4)c3c2-c2ccccc2)c1F [drawing 491] | – | – | 76 to 100 | 76 to 100 |

| Compound | inhibition at 10 µM [1, 3] [%] | inhibition at 10 µM [2, 3] [%] | inhibition at 10 µM ([1]; PANC-1 (Table 4C)) [%] | inhibition at 10 µM ([2]; PANC-1 (Table 4C)) [%] |
| --- | --- | --- | --- | --- |
| COc1ccc(Cn2cnc(-c3nc(O)c4scc(-c5ccccn5)c4n3)c2)cc1 [drawing 399] | 51 to 75 | 0 | – | – |
| Oc1nc(-c2ncc3n2CCCC3)nc2c(-c3ccccn3)csc12 [drawing 388] | 0 | 0 | – | – |
| COC1CCN(c2nc(-c3nccn3C)nc3sc(-c4ccn(C)n4)c(-c4ccccc4)c23)CC1 [drawing 410] | 76 to 100 | 0 | – | – |
| CO[C@H]1C[C@@H](Nc2nc(-c3nccn3C)nc3sc(C(=O)NC(C)C)c(-c4ccccc4)c23)C1 [drawing 520] | – | – | 0 | 0 |
| CN(Cc1ccccc1)C(=O)c1nc(-c2ccccn2)nc(O)c1O [drawing 454] | 0 | 0 | – | – |
| COc1cccc(-c2sc3nc(-c4nccn4C)nc(NC4CCC(OC)C4)c3c2-c2ccccc2)c1F (centres unmarked) [drawing 483] | – | – | 76 to 100 | 76 to 100 |
| COCC(C)Nc1nc(-c2nccn2C)nc2sc(-c3ccn(C)n3)c(-c3ccccc3)c12 (centres unmarked) [drawing 402] | 51 to 75 | 0 | – | – |
| CO[C@H]1CC[C@@H](Nc2nc(-c3nccn3C)nc3sc(C(=O)N4CCOCC4)c(-c4ccccc4)c23)C1 [drawing 527] | – | – | 0 | 0 |
| COc1c(F)cccc1-c1sc2nc(-c3nccn3C)nc(N[C@@H]3CC[C@H](OC)C3)c2c1-c1ccccc1 [drawing 487] | – | – | 76 to 100 | 76 to 100 |
| CCn1cc(Nc2nc(-c3ccccn3)nc(O)c2OC)cn1 [drawing 481] | – | – | 0 | 0 |
| COC1CCC(Nc2nc(-c3nccn3C)nc3sc(-c4cccc5[nH]ncc45)c(-c4ccccc4)c23)C1 (centres unmarked) [drawing 488] | – | – | 76 to 100 | 76 to 100 |
| CO[C@H]1C[C@@H](Nc2nc(-c3nccn3C)nc3sccc23)C1 [drawing 503] | – | – | 1 to 25 | 0 |
| COCCCN(C)c1nc(-c2nccn2C)nc2sc(-c3ccn(C)n3)c(-c3ccccc3)c12 [drawing 401] | 51 to 75 | 0 | – | – |
| O=C(c1nc(-c2ccccn2)nc(O)c1O)N1CCCC1 [drawing 456] | 0 | 0 | – | – |
| COCC(C)Nc1nc(-c2nccn2C)nc2sc(-c3ccn(C)n3)c(-c3ccc(OC)cc3)c12 (centres unmarked) [drawing 412] | 1 to 25 | 0 | – | – |
| COC(=O)c1nc(-c2nccn2C)nc(O)c1O [drawing 468] | 0 | 0 | – | – |
| COCCn1ccnc1-c1nc(O)c2scc(-c3ccccn3)c2n1 [drawing 390] | 51 to 75 | 0 | – | – |
| Cn1ccc(-c2sc3nc(-c4nccn4C)nc(NCC4CCOC4)c3c2-c2ccccc2)n1 (centres unmarked) [drawing 405] | 1 to 25 | 0 | – | – |
| CO[C@H]1C[C@@H](Nc2nc(-c3nccn3C)nc3sc(-c4cnn(C)c4)c(-c4ccccc4)c23)C1 [drawing 492] | – | – | 76 to 100 | 26 to 50 |
| COc1cccc(-c2csc3c(O)nc(-c4nccn4C)nc23)c1Cl [drawing 386] | 26 to 50 | 0 | – | – |

Reference: patent US20250296938A1, “Compounds that Interact with the Ras Superfamily for the Treatment of Cancers, Inflammatory Diseases, Rasopathies, and Fibrotic Disease” (SHY Therapeutics, LLC, priority 2018, published 2025)
